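Results reflect a 48-hour exposure of cells in 96-well plates to compound at five concentrations. GI50: concentration for 50% inhibition of growth. TGI denotes the concentration required for complete inhibition of growth.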
What was measured:
Test in all cases: NCI anticancer screen, dose series, 48 h
SK-OV-3 ovarian = test system: SK-OV-3 ovarian
SNB-75 CNS = test system: SNB-75 CNS
SW-620 colon = test system: SW-620 colon
OVCAR-4 ovarian = test system: OVCAR-4 ovarian
IGROV1 ovarian = test system: IGROV1 ovarian
RPMI-8226 leukemia = test system: RPMI-8226 leukemia
786-0 renal = test system: 786-0 renal
HCT-15 colon = test system: HCT-15 colon
MOLT-4 leukemia = test system: MOLT-4 leukemia
NCI-H226 lung = test system: NCI-H226 lung
HT29 colon = test system: HT29 colon
HL-60(TB) leukemia = test system: HL-60(TB) leukemia
SK-MEL-28 melanoma = test system: SK-MEL-28 melanoma
COLO 205 colon = test system: COLO 205 colon
KM12 colon = test system: KM12 colon
PC-3 prostate = test system: PC-3 prostate
UACC-62 melanoma = test system: UACC-62 melanoma
TK-10 renal = test system: TK-10 renal
SF-295 CNS = test system: SF-295 CNS

COc1ccc(/C=C2\N=C(N3CCCCC3)NC2=O)cc1
TGI (SK-OV-3 ovarian): > 100 µM | TGI (SNB-75 CNS): > 100 µM | TGI (SW-620 colon): > 100 µM | TGI (OVCAR-4 ovarian): > 100 µM | TGI (IGROV1 ovarian): > 100 µM | TGI (RPMI-8226 leukemia): > 100 µM | TGI (786-0 renal): > 100 µM | TGI (HCT-15 colon): > 100 µM | TGI (MOLT-4 leukemia): > 100 µM | TGI (NCI-H226 lung): > 100 µM | TGI (HT29 colon): > 100 µM | TGI (HL-60(TB) leukemia): > 100 µM | TGI (SK-MEL-28 melanoma): > 100 µM | TGI (COLO 205 colon): > 100 µM | TGI (KM12 colon): > 100 µM | TGI (PC-3 prostate): > 100 µM | TGI (UACC-62 melanoma): > 100 µM | TGI (TK-10 renal): > 100 µM | TGI (SF-295 CNS): > 100 µM

Nn1c(C23CC4CC(CC(C4)C2)C3)n[nH]c1=S
TGI (SK-OV-3 ovarian): > 100 µM | TGI (SNB-75 CNS): > 100 µM | TGI (SW-620 colon): > 100 µM | TGI (OVCAR-4 ovarian): > 100 µM | TGI (IGROV1 ovarian): > 100 µM | TGI (RPMI-8226 leukemia): > 100 µM | TGI (786-0 renal): > 100 µM | TGI (HCT-15 colon): > 100 µM | TGI (MOLT-4 leukemia): > 100 µM | TGI (NCI-H226 lung): > 100 µM | TGI (HT29 colon): > 100 µM | TGI (HL-60(TB) leukemia): > 100 µM | TGI (SK-MEL-28 melanoma): > 100 µM | TGI (COLO 205 colon): > 100 µM | TGI (KM12 colon): > 100 µM | TGI (PC-3 prostate): > 100 µM | TGI (UACC-62 melanoma): > 100 µM | TGI (TK-10 renal): > 100 µM | TGI (SF-295 CNS): > 100 µM

CCOC(=O)/C=C(\C(=O)OCC)n1cc(C)c(=O)n(Cc2cn(CCCCOC(C)=O)nn2)c1=O
TGI (SK-OV-3 ovarian): > 70.7 µM | TGI (SNB-75 CNS): 30.3 µM | GI50 (SW-620 colon): 5 µM | TGI (SW-620 colon): 31.8 µM | TGI (OVCAR-4 ovarian): 53.1 µM | TGI (IGROV1 ovarian): 27.5 µM | TGI (RPMI-8226 leukemia): 21.7 µM | TGI (786-0 renal): 16.5 µM | TGI (HCT-15 colon): > 44.2 µM | TGI (MOLT-4 leukemia): 11.6 µM | TGI (NCI-H226 lung): 17.1 µM | TGI (HT29 colon): 21.1 µM | TGI (HL-60(TB) leukemia): 7.32 µM | TGI (SK-MEL-28 melanoma): 31.7 µM | TGI (COLO 205 colon): 8.91 µM | TGI (KM12 colon): 33.3 µM | TGI (PC-3 prostate): 36.2 µM | TGI (UACC-62 melanoma): 29.9 µM | TGI (TK-10 renal): 18.5 µM | TGI (SF-295 CNS): 35.5 µM

CS(=O)(=O)Nc1ccc2ccccc2c1-c1c(NS(C)(=O)=O)ccc2ccccc12
TGI (SK-OV-3 ovarian): > 25 µM | TGI (SNB-75 CNS): > 25 µM | TGI (SW-620 colon): > 25 µM | TGI (OVCAR-4 ovarian): > 25 µM | TGI (IGROV1 ovarian): > 25 µM | TGI (RPMI-8226 leukemia): > 25 µM | TGI (786-0 renal): > 25 µM | TGI (HCT-15 colon): > 25 µM | TGI (MOLT-4 leukemia): > 25 µM | TGI (NCI-H226 lung): > 25 µM | TGI (HT29 colon): > 25 µM | TGI (HL-60(TB) leukemia): > 25 µM | TGI (SK-MEL-28 melanoma): > 25 µM | TGI (COLO 205 colon): > 25 µM | TGI (KM12 colon): > 25 µM | TGI (PC-3 prostate): > 25 µM | TGI (UACC-62 melanoma): > 25 µM | TGI (TK-10 renal): > 25 µM | TGI (SF-295 CNS): > 25 µM

COc1ccc2c(c1)CN1C(=N2)CSC1c1cccc(Br)c1 (stereo not drawn)
TGI (SK-OV-3 ovarian): > 100 µM | TGI (SNB-75 CNS): 64.5 µM | TGI (SW-620 colon): > 100 µM | TGI (OVCAR-4 ovarian): > 100 µM | TGI (IGROV1 ovarian): > 100 µM | TGI (RPMI-8226 leukemia): 35.2 µM | TGI (786-0 renal): 42.8 µM | TGI (HCT-15 colon): > 100 µM | TGI (MOLT-4 leukemia): 63.2 µM | TGI (NCI-H226 lung): 61.2 µM | TGI (HT29 colon): 72.3 µM | TGI (HL-60(TB) leukemia): 22.3 µM | TGI (SK-MEL-28 melanoma): > 100 µM | TGI (COLO 205 colon): > 100 µM | TGI (KM12 colon): > 100 µM | TGI (PC-3 prostate): > 100 µM | TGI (UACC-62 melanoma): 53.1 µM | TGI (TK-10 renal): > 100 µM | TGI (SF-295 CNS): > 100 µM

NC(=Nc1ccccc1Cl)c1ccccc1N
TGI (SK-OV-3 ovarian): > 100 µM | TGI (SNB-75 CNS): > 100 µM | TGI (SW-620 colon): > 100 µM | TGI (OVCAR-4 ovarian): > 100 µM | TGI (IGROV1 ovarian): > 100 µM | TGI (RPMI-8226 leukemia): > 100 µM | TGI (786-0 renal): > 100 µM | TGI (HCT-15 colon): > 100 µM | TGI (MOLT-4 leukemia): > 100 µM | TGI (NCI-H226 lung): > 100 µM | TGI (HT29 colon): > 100 µM | TGI (HL-60(TB) leukemia): > 100 µM | TGI (SK-MEL-28 melanoma): > 100 µM | TGI (COLO 205 colon): > 100 µM | TGI (KM12 colon): > 100 µM | TGI (PC-3 prostate): > 100 µM | TGI (UACC-62 melanoma): > 100 µM | TGI (TK-10 renal): > 100 µM | TGI (SF-295 CNS): > 100 µM

Cc1cc(C)nc(NS(=O)(=O)c2ccc(Nc3c4ccccc4nc4ccc(C(=O)Nc5ccc(S(N)(=O)=O)cc5)cc34)cc2)n1
TGI (SK-OV-3 ovarian): > 100 µM | TGI (SNB-75 CNS): > 100 µM | TGI (SW-620 colon): > 100 µM | TGI (OVCAR-4 ovarian): > 100 µM | TGI (IGROV1 ovarian): > 100 µM | TGI (RPMI-8226 leukemia): > 100 µM | TGI (786-0 renal): > 100 µM | TGI (HCT-15 colon): > 100 µM | TGI (MOLT-4 leukemia): > 100 µM | TGI (NCI-H226 lung): > 100 µM | TGI (HT29 colon): > 100 µM | TGI (HL-60(TB) leukemia): > 100 µM | TGI (SK-MEL-28 melanoma): > 100 µM | TGI (COLO 205 colon): > 100 µM | TGI (KM12 colon): > 100 µM | TGI (PC-3 prostate): > 100 µM | TGI (UACC-62 melanoma): > 100 µM | TGI (TK-10 renal): > 100 µM | TGI (SF-295 CNS): > 100 µM

C#CCn1c(=O)c(I)cn(/C(=C/C(=O)OCC)C(=O)OCC)c1=O
TGI (SK-OV-3 ovarian): 31.8 µM | TGI (SNB-75 CNS): 31.2 µM | TGI (SW-620 colon): 4 µM | TGI (OVCAR-4 ovarian): 21.4 µM | TGI (IGROV1 ovarian): 38.3 µM | TGI (RPMI-8226 leukemia): 2.33 µM | TGI (786-0 renal): 3.09 µM | TGI (HCT-15 colon): 8.03 µM | TGI (MOLT-4 leukemia): 1.9 µM | TGI (NCI-H226 lung): 47.7 µM | TGI (HT29 colon): 36.9 µM | TGI (HL-60(TB) leukemia): 3.89 µM | TGI (SK-MEL-28 melanoma): 26.2 µM | TGI (COLO 205 colon): 2.94 µM | TGI (KM12 colon): 34.8 µM | TGI (PC-3 prostate): 11 µM | TGI (UACC-62 melanoma): 10.5 µM | TGI (TK-10 renal): 1.67 µM | TGI (SF-295 CNS): > 59.2 µM

Reference: PubChem BioAssay (NCI)
